# Experimental data as given in the supplement of paper PMC3974653.
# Counter-ions that a name gives are not always drawn.
# System: MTT (mouse pheochromocytoma)
# Assay: IC50 of cell viability (ATP content)
# Conditions: (24 or 48 h)
# Outline: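 MTT mouse pheochromocytoma cells, cultured overnight at 37°C, 5% CO2 in DMEM with 5% FBS and 1% horse serum, were exposed in white 1536-well plates to library compounds in DMSO at final 0.5 nM to 46 µM (8 concentrations) for 24 or 48 hrs. CellTiter-Glo luminescence was normalised to positive-control (100%) and DMSO (0%) wells. A four-parameter logistic fit gave the IC50.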
row,IC50 of cell viability [µM],Compound
1,> 46,O=C([O-])/C=C/C(O)c1ccc(Cl)cc1.[Na+] (centres undefined) [NCS-356]
2,> 46,CCOC(=O)\C1=C\[C@@]2(CC)CCCN3CCC4=C([C@@H]23)[N]1C5=C4C=CC=C5 [VINPOCETINE]
3,> 46,Cc1cc(C)nc(N[S+](=O)([O-])c2ccc(N)cc2)n1 [Sulfamethazine]
4,> 46,CC[C@@H]1OC(=O)[C@H](C)[C@H](O[C@H]2C[C@](C)(OC)[C@H](O)[C@H](C)O2)[C@H](C)[C@H](O[C@@H]2O[C@@H](C)C[C@@H](N(C)C)[C@H]2O)[C@](C)(O)C[C@H](C)/C(=N/OCOCCOC)[C@H](C)[C@H](O)[C@]1(C)O [Roxithromycin]
5,> 46,COc1cc(N[S+](=O)([O-])c2ccc(N)cc2)nc(C)n1 [SULFAMETOMIDINE]
6,> 46,CCCOC(=O)c1cc(O)c(O)c(O)c1 [Propyl gallate]
7,> 46,CN(C)CCOc1ccccc1Cc1ccccc1 [PHENYLTOLOXAMINE CITRATE]
8,> 46,"CC(C)NC[C@H](O)c1cc(O)cc(O)c1 [Metaproterenol sulfate, orciprenaline sulfate]"
9,> 46,CN(C)CCc1c[nH]c2ccc(CC3COC(=O)N3)cc12 (centres undefined) [ZOLMITRIPTAN]
10,> 46,CC(=O)C1(O)CCC2C3CC(C)C4=CC(=O)CCC4(C)C3CCC21C (centres undefined) [Medroxyprogesterone]
11,> 46,CN(C1=CC=CC=C1)C(=O)C/2=C(O)/C3=C(C=CC=C3)N(C)C2=O [Linomide]
12,> 46,COC(=O)CCC(=O)CN [METHYL AMINOLEVULINATE HYDROCHLORIDE]
13,> 46,CCOc1cc(N)c(Cl)cc1C(=O)NCC1CN(Cc2ccc(F)cc2)CCO1 (centres undefined) [MOSAPRIDE CITRATE]
14,> 46,[Na+].[Na+].CC1(C)S[C@H]2[C@H](NC(=O)[C@H](C([O-])=O)C3=CSC=C3)C(=O)[N@]2[C@H]1C([O-])=O [Ticarcillin sodium]
15,> 46,CCCCC(CC)COS(=O)(=O)[O-] (centres undefined) [NATRII ETASULFAS]
16,> 46,CCCC[S+](=O)([O-])N[C@@H](Cc1ccc(OCCCCC2CCNCC2)cc1)C(=O)O.Cl.O [Tirofiban]
17,> 46,Cc1ccc2c(n1)Oc1ccc(C(C)C(=O)OCC(=O)N(C)C)cc1C2 (centres undefined) [Mepranoprofen arbamel]
18,> 46,O=C1CN(/N=C/c2ccc([N+](=O)[O-])o2)C(=O)N1 [Nitrofurantoin]

row,IC50 of cell viability [µM],Compound
1,> 46,Cn1ccnc1S [Methimazole]
2,> 46,O=C(c1ccccc1)c1ccc2n1CCC2C(=O)O (centres undefined) [Ketorolac tris salt]
3,> 46,CC1(C)S[C@@H]2[C@H](NC(=O)[C@H](NC(=O)N3CCN([S+](C)(=O)[O-])C3=O)c3ccccc3)C(=O)N2[C@H]1C(=O)O [MEZLOCILLIN SODIUM MONOHYDRATE]
4,> 46,Nc1c2c(nc3ccccc13)CCCC2O (centres undefined) [HYDROXYTACRINE]
5,> 46,OCc1cc(C(O)CNCCCCCCOCCCCc2ccccc2)ccc1O (centres undefined) [Salmeterol]
6,> 46,CNC[C@H](O)[C@@H](O)[C@H](O)[C@H](O)CO [Meglumine]
7,> 46,C[C@@H]1COC2=C3N1\C=C(\C(O)=O)C(=O)C3=CC(=C2N4CCN(C)CC4)F [Ofloxacin]
8,> 46,CC[C@@]12CCCN3CCc4c(n(c5ccccc45)[C@](O)(C(=O)OC)C1)C32 (some centres undefined) [VINCAMINE]
9,> 46,Cn1cnc2c1c(=O)[nH]c(=O)n2C [Theobromine]
10,> 46,CN(C)CCCN1c2ccccc2Sc2ccccc21 [Promazine hydrochloride]
11,> 46,CCCCCC[C@@H](O)C/C=C\CCCCCCCC(=O)O [POTASSIUM RICINOLEATE]
12,> 46,CCC1(c2ccccc2)C(=O)NCNC1=O [PRIMIDONE]
13,> 46,Cc1cc(CC(=O)O)n(C)c1C(=O)c1ccc(Cl)cc1 [ZOMEPIRAC SODIUM]
14,> 46,CC1OC(OCC2OC(OC/3=C(/OC4=C(C(=CC(=C4)OCCO)O)C3=O)C5=CC=C(OCCO)C(=C5)OCCO)C(O)C(O)C2O)[C@@H](O)C(O)C1O (some centres undefined) [TROXERUTIN]
15,> 46,CCOC(=O)[C@H](CCc1ccccc1)N[C@@H](C)C(=O)N1[C@@H](C(=O)O)C[C@H]2CCC[C@@H]21 [Ramipril]
16,> 46,CN1C(CSCC(F)(F)F)Nc2cc(Cl)c([S+](N)(=O)[O-])cc2[S+]1(=O)[O-] (centres undefined) [Polythiazide]
17,> 46,COc1ccc(C(=O)NCc2ccc(OCCN(C)C)cc2)cc1OC [ITOPRIDE HYDROCHLORIDE]

# Second part, the molecule before the results:
row,Compound,IC50 of cell viability [µM]
1,CCOC(=S)SSC(=S)OCC [Dixanthogen],> 46
2,CCCCC/C=C\C/C=C\C/C=C\CCCCC(=O)O [Gamolenic acid],> 46
3,CN1C2CCC1C(C(=O)O)C(OC(=O)c1ccccc1)C2 (centres undefined) [BENZOYLECGONINE],> 46
4,CCN[C@@H]1CN(CCCOC)[S+](=O)([O-])c2sc([S+](N)(=O)[O-])cc21 [Brinzolamide],> 46
5,COc1ccc2c(=O)c(C)c(-c3ccccc3)oc2c1CN(C)C [DIMEFLINE HYDROCHLORIDE],> 46
6,"C[C@@H](N)[C@@H](O)c1ccc(O)c(O)c1 [(-)3,4-DIHYDROXYNOREPHEDRINE]",> 46
7,NC(=O)N/N=C/c1ccc([N+](=O)[O-])o1 [5-Nitro-2-furaldehyde semicarbazone],> 46
8,NC(=O)OC[C@H](O)COc1ccc(Cl)cc1 [Chlorphensin carbamate],> 46
9,Nc1nnnn1-c1ccccc1 [Fenamol],> 46
10,OCCCBr [3-Bromo-1-propanol],> 46
11,COc1cccc([C@@]2(O)CCCC[C@@H]2CN(C)C)c1 [Tramadolum],> 46
12,CC(Cc1ccccc1)NCCn1cnc2c1c(=O)n(C)c(=O)n2C (centres undefined) [Fenethylline],> 46
13,CC1(C)C[C@@H]1C(=O)N/C(=C\CCCCSC[C@H](N)C(=O)O)C(=O)O [CILASTATIN SODIUM],> 46
14,CC1=CC=CC=C1N2\C(=N/C3=CC=CC=C3C2=O)C [Methaqualone],> 46
15,CC(=O)c1ccc([S+](=O)([O-])NC(=O)NC2CCCCC2)cc1 [Acetohexamide],> 46
16,CC(C)(C)NC[C@H](O)c1ccc(O)cc1Cl [MELUADRINE TARTRATE],> 46
17,Clc1ccc(C2(Cn3cncn3)OCCO2)c(Cl)c1 [Azaconazole],> 46
18,CCCCNc1ccc(C(=O)OCC[NH+](CC)CC)cc1 [Depolipon],> 46
19,C[C@]12CC[C@H]3[C@@H](C\C=C/4C[C@@H](O)CC[C@]34C)[C@@H]1CCC2=O [Prasterona],> 46
20,CN(C)CC[C@@](O)(c1ccccc1)c1ccccc1Cl [CHLOPHEDIANOL HYDROCHLORIDE],> 46

row,Compound,IC50 of cell viability [µM]
1,CCON=C(CC)C/1=C(O)/CC(CC1=O)C2=C(C)C=C(C)C=C2C (centres undefined) [Tralkoxydim],> 46
2,CCC1(CC)C(=O)N\C=C/C1=O [PYRITHYLDIONE],> 46
3,CC(C)CC(N(C)C)C1(c2ccc(Cl)cc2)CCC1.Cl (centres undefined) [SIBUTRAMINE HYDROCHLORIDE],> 46
4,Nc1ncnc2c1ncn2[C@@H]1O[C@H](COP(=O)(O)O)[C@@H](O)[C@H]1O [ADENOSINE-5'-MONOPHOSPHATE (AMP)],> 46
5,CC1=NC=C2C\N=C(\C3=CC=CC=C3F)C4=CC(=CC=C4[N]12)Cl [MIDAZOLAM HYDROCHLORIDE],> 46
6,CCOC(=O)c1cnc2c(cnn2CC)c1NN=C(C)C.Cl [Etazolate hydrochloride],> 46
7,CC1=C(C(=O)O)N2C(=O)[C@@H](NC(=O)[C@H](N)C3=CCC=CC3)[C@H]2SC1 [Cephradine],> 46
8,COc1ccc(CN2CCNCC2)c(OC)c1OC [Trimetazidine dihydrochloride],> 46
9,CO/N=C(/C(=O)N[C@@H]1C(=O)N2C(C(=O)O)=C(C[n+]3ccc(N)n3CCO)CS[C@H]12)c1csc(N)n1 [CEFOSELIS SULFATE],> 46
10,Cc1cccc(Cc2c[nH]cn2)c1C [Detomidine],> 46
11,CC(C)O [2-Propanol],> 46
12,C\C(C)=C\CC1C(=O)N(N(C1=O)C2=CC=CC=C2)C3=CC=CC=C3 [Feprazone],> 46
13,CCOC(=O)c1cccnc1 [ETHYL NICOTINATE],> 46
14,CCC[C@@H]1CC(C(=O)NC(C2O[C@H](SC)C(OP(=O)(O)O)[C@H](O)[C@H]2O)[C@H](C)Cl)N(C)C1 (some centres undefined) [Clindamycin 2-phosphate],> 46
15,CCN(CC)CCNC(=O)c1cc(Br)c(N)cc1OC [BROMOPRIDE],> 46
16,C\C1=C(/C)C(=O)\C(=C(\C)C1=O)CCCCC#CCCCC#CCO [AA-861],> 46
17,O=P(O)(O)OC(Cn1cncn1)(Cn1cncn1)c1ccc(F)cc1F [Fosfluconazole],> 46
18,Nc1ccccc1.O=[N+]([O-])O [Anilinium nitrate],> 46
19,C=CC[C@]1(O)CCC2C3CCC4=CCCCC4C3CCC21C (some centres undefined) [Allylestrenol],> 46
